Series [1] relates to low Km cAMP PDE, rat brain. Put plainly: cAMP PDE inhibition, low Km enzyme from rat brain. The series is classed as biochemical. The following applies: cAMP concentration 0.14 μM; for IC50: read-out: 50% inhibitory value (I50). Here is the method: (§1) The inhibitory activity of the compounds of the invention (or of compositions, e.g. culture broths, containing them) may be assayed by the method of Pichard and Thun [Journal of Biological Chemistry, 251, 5726-5737 (1976)], using a crude enzyme solution derived from rat brains as the cAMP PDE. In this method, ^14 C-labelled cAMP is used as the substrate and is reacted at 30° C. for 20 minutes with 2-5 μl of the compound or composition under test, 20 μl of a snake venom and 40 μl of the crude enzyme solution in a 0.2M tris-HCl buffer (pH 8.0). The tris-HCl buffer is a mixture of tris(hydroxymethyl)aminomethane and hydrochloric acid. After completion of the reaction, the reaction mixture is treated with an Amberlite (Trade Mark) IRP-58 resin. From the residual radioactivity of the adenosine in the product, the inhibitory activity of the compound or composition against the cAMP PDE can be calculated as a percentage.
(§2) The inhibitory activity of griseolic acid against cAMP PDE in terms of its 50% inhibitory value (I50) are shown in Table 5 against cAMP PDE from a variety of sources having either a high or a low Michaelis constant (Km). The results are reported as μmoles (μM).

For series [2], the target named is high Km cAMP PDE, rat brain. Nature of the series: cAMP PDE inhibition, high Km enzyme from rat brain. It is filed as biochemical. The following applies: cAMP concentration 100 μM, read-out: 50% inhibitory value (I50). Here is the method: as §1, §2
Series [3] addresses low Km cAMP PDE, rat heart. Put plainly: cAMP PDE inhibition, low Km enzyme from rat heart. The series is classed as biochemical. The following applies: cAMP concentration 0.14 μM, read-out: 50% inhibitory value (I50). The method, then: as §1, §2
Series [4] has as its target high Km cAMP PDE, rat heart. Put plainly: cAMP PDE inhibition, high Km enzyme from rat heart. The series is classed as biochemical. The following applies: cAMP concentration 100 μM, read-out: 50% inhibitory value (I50). Here is the method: as §1, §2
The subject of series [5] is low Km cAMP PDE, rat aorta. Put plainly: cAMP PDE inhibition, low Km enzyme from rat aorta. The series is classed as biochemical. The following applies: cAMP concentration 0.14 μM, read-out: 50% inhibitory value (I50). The method, then: as §1, §2
In series [6] the test system is high Km cAMP PDE, rat aorta. Nature of the series: cAMP PDE inhibition, high Km enzyme from rat aorta. The series is classed as biochemical. The following applies: cAMP concentration 100 μM, read-out: 50% inhibitory value (I50). Here is the method:
as §1, §2

Series [7] addresses T1, low Km cAMP PDE, rat platelets (Rattus norvegicus, UniProt Q62865).
T1 construct: from tissue; host or cells: rat platelets
T1 sequence (Q62865 1-1141): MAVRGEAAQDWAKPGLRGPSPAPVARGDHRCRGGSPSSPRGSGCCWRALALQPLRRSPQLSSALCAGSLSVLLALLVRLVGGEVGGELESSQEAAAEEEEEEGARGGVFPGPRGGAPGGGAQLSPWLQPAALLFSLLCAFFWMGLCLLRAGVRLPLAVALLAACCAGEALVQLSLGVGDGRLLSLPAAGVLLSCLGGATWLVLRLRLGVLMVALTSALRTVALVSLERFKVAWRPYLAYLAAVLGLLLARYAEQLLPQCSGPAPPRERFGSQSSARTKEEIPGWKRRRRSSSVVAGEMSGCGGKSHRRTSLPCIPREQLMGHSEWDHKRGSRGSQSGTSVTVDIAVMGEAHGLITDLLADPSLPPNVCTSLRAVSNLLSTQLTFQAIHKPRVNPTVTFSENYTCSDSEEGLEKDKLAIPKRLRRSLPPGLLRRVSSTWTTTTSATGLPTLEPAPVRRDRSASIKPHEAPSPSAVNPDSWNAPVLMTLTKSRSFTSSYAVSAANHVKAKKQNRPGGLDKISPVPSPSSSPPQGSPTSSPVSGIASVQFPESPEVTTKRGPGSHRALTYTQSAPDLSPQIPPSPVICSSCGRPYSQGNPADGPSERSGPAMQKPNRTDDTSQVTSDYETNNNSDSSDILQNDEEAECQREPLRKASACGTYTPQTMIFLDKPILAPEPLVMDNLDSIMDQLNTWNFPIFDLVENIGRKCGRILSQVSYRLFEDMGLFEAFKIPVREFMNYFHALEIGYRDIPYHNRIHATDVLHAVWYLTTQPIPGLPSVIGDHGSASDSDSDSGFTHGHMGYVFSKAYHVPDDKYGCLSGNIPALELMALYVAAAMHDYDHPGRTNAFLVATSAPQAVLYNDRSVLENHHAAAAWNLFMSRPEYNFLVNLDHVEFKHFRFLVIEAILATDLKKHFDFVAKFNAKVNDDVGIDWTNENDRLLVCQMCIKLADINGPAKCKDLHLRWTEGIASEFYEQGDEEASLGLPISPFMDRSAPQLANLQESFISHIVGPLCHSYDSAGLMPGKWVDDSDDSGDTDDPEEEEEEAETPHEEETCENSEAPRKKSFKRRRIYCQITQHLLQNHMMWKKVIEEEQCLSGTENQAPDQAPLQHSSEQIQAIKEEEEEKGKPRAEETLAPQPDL
Put plainly: cAMP PDE inhibition, low Km enzyme from rat platelets. It is filed as biochemical. The following applies: cAMP concentration 0.14 μM, read-out: 50% inhibitory value (I50). The method, then: as §1, §2

Series [8] relates to high Km cAMP PDE, rat platelets. Nature of the series: cAMP PDE inhibition, high Km enzyme from rat platelets. It is filed as biochemical. The following applies: cAMP concentration 100 μM, read-out: 50% inhibitory value (I50). The method, then: as §1, §2
Series [9] addresses low Km cAMP PDE, rat kidney. Nature of the series: cAMP PDE inhibition, low Km enzyme from rat kidney. It is filed as biochemical. The following applies: cAMP concentration 0.14 μM, read-out: 50% inhibitory value (I50). The method, then: as §1, §2
Series [10] concerns the target high Km cAMP PDE, rat kidney. Nature of the series: cAMP PDE inhibition, high Km enzyme from rat kidney. It is filed as biochemical. The following applies: cAMP concentration 100 μM, read-out: 50% inhibitory value (I50). The method, then:
as §1, §2

In another series the test system is Hela S-3 strain cells. Put plainly: basic tests on cytotoxicity. The series is classed as cell-based, mouse. The following applies: even at concentrations of 100 μg/ml.
Series [11] in a line: water solubility (qualitative). It is filed as physicochemical.

For the compound `Nc1ncnc2c1ncn2C1OC2=C(C(=O)O)C(C(O)C(=O)O)OC2C1O` (centres unmarked) [griseolic acid], the “inhibitory activity relative to papaverine (times stronger)” value in [1] was “about 20 times”. The IC50 in [1] stood at 160 nM; in series [2] it was 800 nM; in series [3], 36 nM; in series [4], 340 nM; in series [5], 31 nM; in series [6], 510 nM. Also, the IC50 in series [7] worked out at 41 nM; in series [8] it was 8000 nM; in series [9], 120 nM; in [10], 580 nM. For the same compound, the “inhibition of cell growth” value with Hela S-3 strain cells was “no inhibition of cell growth”. For the same compound, the water solubility result in series [11] was “water-soluble”.
For the compound `COc1ccc(Cc2nccc3cc(OC)c(OC)cc23)cc1OC` [Papaverine, reference compound], the IC50 in series [1] came out at 3500 nM.

For the origin of these results see patent US4460765A, “Enzyme inhibitor produced by cultivation of streptomyces microorganisms” (Sankyo Company Limited, priority 1979, dated 1984).
